Laboratory results published in the kinase profiling compilation of Christmann-Franck et al. (2016).

Assays:
Experiment in all cases: KINOMEscan competition binding
Conditions in all cases: compound 10.0 µM
[1] = molecular target: CAMK2G (human) (UniProt Q13555)
[2] = molecular target: CSNK2A2 (human) (UniProt P19784)
[3] = molecular target: NUAK1 (human) (UniProt O60285)
[4] = test system: EGFR (human), P00533 [746-750 del]
[5] = test system: EGFR (human), P00533 [752-759 del]
[6] = molecular target: BRSK2 (human) (UniProt Q8IWQ3)
[7] = molecular target: EPHB2 (human) (UniProt P29323)
[8] = molecular target: CSNK1D (human) (UniProt P48730)
[9] = molecular target: PIP5K1A (human) (UniProt Q99755)
[10] = molecular target: TYRO3 (human) (UniProt Q06418)
[11] = molecular target: JAK2 JH1 catalytic (human) (UniProt O60674)
[12] = molecular target: ACVR1B (human) (UniProt P36896)
[13] = molecular target: PRKD2 (human) (UniProt Q9BZL6)
[14] = molecular target: PAK7 (human) (UniProt Q9P286)
[15] = test system: FLT3 (human), P36888 [K663Q]
[16] = molecular target: GAK (human) (UniProt O14976)
[17] = molecular target: MAPK15 (human) (UniProt Q8TD08)
[18] = molecular target: KDR (human) (UniProt P35968)
[19] = molecular target: MAP3K11 (human) (UniProt Q16584)
[20] = molecular target: NEK9 (human) (UniProt Q8TD19)
[21] = molecular target: CSNK2A1 (human) (UniProt P68400)
[22] = molecular target: MAP3K12 (human) (UniProt Q12852)
[23] = molecular target: YES1 (human) (UniProt P07947)
[24] = molecular target: TYK2 JH2 pseudokinase (human) (UniProt P29597)
[25] = molecular target: PRKCQ (human) (UniProt Q04759)
[26] = molecular target: PRKD3 (human) (UniProt O94806)
[27] = molecular target: KIT (human) (UniProt P10721)
[28] = molecular target: CDC42BPA (human) (UniProt Q5VT25)
[29] = molecular target: STK38L (human) (UniProt Q9Y2H1)
[30] = molecular target: SIK2 (human) (UniProt Q9H0K1)
[31] = molecular target: BMP2K (human) (UniProt Q9NSY1)
[32] = molecular target: SYK (human) (UniProt P43405)
[33] = molecular target: SLK (human) (UniProt Q9H2G2)
[34] = molecular target: PLK1 (human) (UniProt P53350)
[35] = molecular target: MAP3K10 (human) (UniProt Q02779)
[36] = molecular target: TTK (human) (UniProt P33981)
[37] = molecular target: PIM3 (human) (UniProt Q86V86)
[38] = molecular target: AKT3 (human) (UniProt Q9Y243)
[39] = molecular target: PTK6 (human) (UniProt Q13882)
[40] = molecular target: LATS1 (human) (UniProt O95835)
[41] = molecular target: FYN (human) (UniProt P06241)
[42] = molecular target: RET (human) (UniProt P07949)

Chain of GAK (human) (O14976 whole entry, looked up): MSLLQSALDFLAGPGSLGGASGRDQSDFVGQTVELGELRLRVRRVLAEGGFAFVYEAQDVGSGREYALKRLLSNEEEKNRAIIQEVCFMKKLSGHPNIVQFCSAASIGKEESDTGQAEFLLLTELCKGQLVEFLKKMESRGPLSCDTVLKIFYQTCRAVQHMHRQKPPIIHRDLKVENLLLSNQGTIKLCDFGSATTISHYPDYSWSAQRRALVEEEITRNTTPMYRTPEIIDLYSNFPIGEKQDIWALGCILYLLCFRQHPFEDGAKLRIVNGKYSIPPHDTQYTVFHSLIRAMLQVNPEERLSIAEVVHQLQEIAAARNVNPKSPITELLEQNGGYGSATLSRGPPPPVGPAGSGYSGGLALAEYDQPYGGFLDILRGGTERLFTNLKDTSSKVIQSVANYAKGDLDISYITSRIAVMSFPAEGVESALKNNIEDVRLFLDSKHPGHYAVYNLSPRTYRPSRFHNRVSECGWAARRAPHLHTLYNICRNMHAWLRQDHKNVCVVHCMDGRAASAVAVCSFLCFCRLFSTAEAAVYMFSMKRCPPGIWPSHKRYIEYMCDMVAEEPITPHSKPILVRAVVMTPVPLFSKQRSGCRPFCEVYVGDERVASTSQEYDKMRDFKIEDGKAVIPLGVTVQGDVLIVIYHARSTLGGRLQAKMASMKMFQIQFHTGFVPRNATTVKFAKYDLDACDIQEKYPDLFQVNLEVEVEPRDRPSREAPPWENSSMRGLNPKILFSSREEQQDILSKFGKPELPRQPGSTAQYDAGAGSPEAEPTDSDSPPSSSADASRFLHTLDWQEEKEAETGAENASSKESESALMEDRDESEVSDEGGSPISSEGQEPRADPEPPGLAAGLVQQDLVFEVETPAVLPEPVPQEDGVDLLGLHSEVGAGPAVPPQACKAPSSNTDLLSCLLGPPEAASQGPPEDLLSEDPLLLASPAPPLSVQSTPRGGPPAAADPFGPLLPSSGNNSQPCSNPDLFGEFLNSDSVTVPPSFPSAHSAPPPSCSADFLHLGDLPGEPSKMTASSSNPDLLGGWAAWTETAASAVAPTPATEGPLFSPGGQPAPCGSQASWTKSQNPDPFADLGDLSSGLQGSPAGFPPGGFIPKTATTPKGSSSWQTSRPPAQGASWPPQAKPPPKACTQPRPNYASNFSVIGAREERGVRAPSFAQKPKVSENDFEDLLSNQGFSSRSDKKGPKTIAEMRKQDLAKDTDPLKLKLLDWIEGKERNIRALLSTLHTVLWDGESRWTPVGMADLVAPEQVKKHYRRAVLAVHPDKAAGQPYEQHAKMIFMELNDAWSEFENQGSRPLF
Chain of YES1 (human) (P07947 whole entry, looked up): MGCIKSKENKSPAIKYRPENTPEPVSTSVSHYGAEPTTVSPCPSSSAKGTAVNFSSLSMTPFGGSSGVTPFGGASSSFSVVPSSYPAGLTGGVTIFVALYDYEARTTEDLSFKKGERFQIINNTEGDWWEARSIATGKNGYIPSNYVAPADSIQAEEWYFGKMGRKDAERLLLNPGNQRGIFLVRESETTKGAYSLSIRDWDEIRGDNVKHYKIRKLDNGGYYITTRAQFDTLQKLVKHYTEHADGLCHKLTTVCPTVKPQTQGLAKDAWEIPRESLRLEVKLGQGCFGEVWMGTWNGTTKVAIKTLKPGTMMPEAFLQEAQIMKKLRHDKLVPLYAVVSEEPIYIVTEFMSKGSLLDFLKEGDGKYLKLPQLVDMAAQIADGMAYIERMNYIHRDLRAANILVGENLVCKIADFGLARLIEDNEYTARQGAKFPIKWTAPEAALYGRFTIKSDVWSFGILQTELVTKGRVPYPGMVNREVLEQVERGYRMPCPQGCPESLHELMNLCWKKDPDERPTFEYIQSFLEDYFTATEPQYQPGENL
Chain of EPHB2 (human) (P29323 whole entry, looked up): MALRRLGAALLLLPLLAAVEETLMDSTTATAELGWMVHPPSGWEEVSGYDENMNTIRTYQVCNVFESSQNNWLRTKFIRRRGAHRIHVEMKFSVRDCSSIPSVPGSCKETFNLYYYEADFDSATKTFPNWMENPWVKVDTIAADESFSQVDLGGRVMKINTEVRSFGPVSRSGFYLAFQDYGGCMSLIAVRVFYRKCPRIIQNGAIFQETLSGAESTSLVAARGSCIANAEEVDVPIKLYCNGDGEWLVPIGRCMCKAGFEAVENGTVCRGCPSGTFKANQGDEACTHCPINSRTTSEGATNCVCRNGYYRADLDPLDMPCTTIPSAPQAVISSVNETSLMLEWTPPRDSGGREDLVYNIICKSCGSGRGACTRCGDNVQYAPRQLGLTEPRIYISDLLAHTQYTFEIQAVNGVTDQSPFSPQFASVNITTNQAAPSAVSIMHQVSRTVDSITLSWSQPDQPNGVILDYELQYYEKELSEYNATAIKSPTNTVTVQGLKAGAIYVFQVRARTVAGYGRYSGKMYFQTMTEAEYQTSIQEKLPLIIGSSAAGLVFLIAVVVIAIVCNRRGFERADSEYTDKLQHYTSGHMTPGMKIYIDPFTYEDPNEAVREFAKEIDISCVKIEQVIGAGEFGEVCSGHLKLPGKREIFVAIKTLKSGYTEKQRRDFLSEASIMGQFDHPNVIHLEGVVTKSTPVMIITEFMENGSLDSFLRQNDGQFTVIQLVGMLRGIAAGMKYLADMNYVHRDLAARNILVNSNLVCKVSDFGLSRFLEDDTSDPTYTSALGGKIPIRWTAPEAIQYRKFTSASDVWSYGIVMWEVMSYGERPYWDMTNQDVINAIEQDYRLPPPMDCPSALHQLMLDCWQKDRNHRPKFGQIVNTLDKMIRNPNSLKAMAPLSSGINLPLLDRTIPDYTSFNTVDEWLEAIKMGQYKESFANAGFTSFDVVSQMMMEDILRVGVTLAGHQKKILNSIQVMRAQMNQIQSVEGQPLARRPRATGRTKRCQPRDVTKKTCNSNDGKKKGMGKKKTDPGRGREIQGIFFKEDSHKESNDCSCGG
Chain of TTK (human) (P33981 whole entry, looked up): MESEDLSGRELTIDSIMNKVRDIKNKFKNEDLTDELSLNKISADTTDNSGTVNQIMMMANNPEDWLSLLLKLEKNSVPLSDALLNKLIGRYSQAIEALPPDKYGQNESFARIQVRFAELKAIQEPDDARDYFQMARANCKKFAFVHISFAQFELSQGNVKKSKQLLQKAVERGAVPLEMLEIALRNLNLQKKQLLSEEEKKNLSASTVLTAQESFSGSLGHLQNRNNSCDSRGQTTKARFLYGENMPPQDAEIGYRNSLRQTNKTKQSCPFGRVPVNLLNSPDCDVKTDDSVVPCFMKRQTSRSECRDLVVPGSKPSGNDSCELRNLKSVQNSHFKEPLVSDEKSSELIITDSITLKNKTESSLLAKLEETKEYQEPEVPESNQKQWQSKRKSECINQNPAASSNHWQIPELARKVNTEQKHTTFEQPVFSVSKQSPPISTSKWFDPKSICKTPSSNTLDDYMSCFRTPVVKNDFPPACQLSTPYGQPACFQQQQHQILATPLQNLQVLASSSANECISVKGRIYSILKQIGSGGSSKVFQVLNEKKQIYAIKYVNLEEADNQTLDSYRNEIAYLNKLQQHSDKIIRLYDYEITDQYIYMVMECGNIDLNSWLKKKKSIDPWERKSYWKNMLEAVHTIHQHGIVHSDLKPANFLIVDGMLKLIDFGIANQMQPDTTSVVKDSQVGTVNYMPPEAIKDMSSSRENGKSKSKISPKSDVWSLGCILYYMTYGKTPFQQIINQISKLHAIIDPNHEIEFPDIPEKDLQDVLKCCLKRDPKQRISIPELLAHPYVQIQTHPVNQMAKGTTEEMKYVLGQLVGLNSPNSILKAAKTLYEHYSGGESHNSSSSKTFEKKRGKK
Chain of PTK6 (human) (Q13882 whole entry, looked up): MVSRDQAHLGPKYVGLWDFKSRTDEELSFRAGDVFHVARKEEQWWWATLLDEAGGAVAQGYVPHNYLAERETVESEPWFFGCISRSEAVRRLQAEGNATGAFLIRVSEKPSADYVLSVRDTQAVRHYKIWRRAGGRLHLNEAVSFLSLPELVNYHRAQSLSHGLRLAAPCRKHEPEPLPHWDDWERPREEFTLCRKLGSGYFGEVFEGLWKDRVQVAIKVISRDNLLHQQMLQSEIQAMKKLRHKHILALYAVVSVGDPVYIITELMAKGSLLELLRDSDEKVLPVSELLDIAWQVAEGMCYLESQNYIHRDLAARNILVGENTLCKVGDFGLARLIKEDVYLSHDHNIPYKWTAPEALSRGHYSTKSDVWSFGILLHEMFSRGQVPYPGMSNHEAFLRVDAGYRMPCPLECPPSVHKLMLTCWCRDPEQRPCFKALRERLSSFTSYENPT
Chain of FYN (human) (P06241 whole entry, looked up): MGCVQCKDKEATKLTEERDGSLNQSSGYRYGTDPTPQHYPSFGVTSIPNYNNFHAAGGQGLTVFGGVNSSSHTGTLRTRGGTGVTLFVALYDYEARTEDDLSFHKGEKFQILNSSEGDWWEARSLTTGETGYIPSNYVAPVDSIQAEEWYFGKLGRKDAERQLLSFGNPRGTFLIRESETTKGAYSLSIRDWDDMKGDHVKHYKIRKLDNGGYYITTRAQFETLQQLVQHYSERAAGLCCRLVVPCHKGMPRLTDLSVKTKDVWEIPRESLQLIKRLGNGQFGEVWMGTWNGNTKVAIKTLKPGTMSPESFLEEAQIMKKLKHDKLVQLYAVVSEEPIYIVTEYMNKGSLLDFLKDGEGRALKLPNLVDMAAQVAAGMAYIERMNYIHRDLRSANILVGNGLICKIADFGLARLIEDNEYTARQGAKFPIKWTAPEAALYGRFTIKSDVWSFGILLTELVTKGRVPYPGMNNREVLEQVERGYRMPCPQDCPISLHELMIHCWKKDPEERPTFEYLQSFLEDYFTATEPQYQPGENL

Compound: CCN1CCN(Cc2ccc(NC(=O)c3ccc(C)c(/C=C/c4cnc(Nc5cc(N6CCNCC6)nc(C)n5)cn4)c3)cc2C(F)(F)F)CC1
- kinase still bound, per cent of control [1]: 100%
- kinase still bound, per cent of control [2]: 72%
- kinase still bound, per cent of control [3]: 98%
- kinase still bound, per cent of control [4]: 17%
- kinase still bound, per cent of control [5]: 6.2%
- kinase still bound, per cent of control [6]: 100%
- kinase still bound, per cent of control [7]: 5.7%
- kinase still bound, per cent of control [8]: 95%
- kinase still bound, per cent of control [9]: 86%
- kinase still bound, per cent of control [10]: 37%
- kinase still bound, per cent of control [11]: 29%
- kinase still bound, per cent of control [12]: 96%
- kinase still bound, per cent of control [13]: 76%
- kinase still bound, per cent of control [14]: 100%
- kinase still bound, per cent of control [15]: 0.15%
- kinase still bound, per cent of control [16]: 51%
- kinase still bound, per cent of control [17]: 100%
- kinase still bound, per cent of control [18]: 37%
- kinase still bound, per cent of control [19]: 10%
- kinase still bound, per cent of control [20]: 27%
- kinase still bound, per cent of control [21]: 89%
- kinase still bound, per cent of control [22]: 18%
- kinase still bound, per cent of control [23]: 1.4%
- kinase still bound, per cent of control [24]: 100%
- kinase still bound, per cent of control [25]: 81%
- kinase still bound, per cent of control [26]: 71%
- kinase still bound, per cent of control [27]: 0.15%
- kinase still bound, per cent of control [28]: 100%
- kinase still bound, per cent of control [29]: 84%
- kinase still bound, per cent of control [30]: 61%
- kinase still bound, per cent of control [31]: 100%
- kinase still bound, per cent of control [32]: 15%
- kinase still bound, per cent of control [33]: 2.4%
- kinase still bound, per cent of control [34]: 100%
- kinase still bound, per cent of control [35]: 30%
- kinase still bound, per cent of control [36]: 85%
- kinase still bound, per cent of control [37]: 55%
- kinase still bound, per cent of control [38]: 81%
- kinase still bound, per cent of control [39]: 91%
- kinase still bound, per cent of control [40]: 55%
- kinase still bound, per cent of control [41]: 4.6%
- kinase still bound, per cent of control [42]: 0.15%

Compound: CCN1CCN(Cc2ccc(NC(=O)c3ccc(C)c(Oc4ccnc5[nH]ccc45)c3)cc2C(F)(F)F)CC1
- kinase still bound, per cent of control [4]: 8.4%
- kinase still bound, per cent of control [5]: 4.6%
- kinase still bound, per cent of control [7]: 11%
- kinase still bound, per cent of control [11]: 2.4%
- kinase still bound, per cent of control [15]: 0%
- kinase still bound, per cent of control [16]: 31%
- kinase still bound, per cent of control [18]: 1.5%
- kinase still bound, per cent of control [23]: 1.6%
- kinase still bound, per cent of control [24]: 0%
- kinase still bound, per cent of control [27]: 0%
- kinase still bound, per cent of control [29]: 6.8%
- kinase still bound, per cent of control [32]: 6.2%
- kinase still bound, per cent of control [33]: 2%
- kinase still bound, per cent of control [36]: 24%
- kinase still bound, per cent of control [39]: 28%
- kinase still bound, per cent of control [41]: 1.6%
- kinase still bound, per cent of control [42]: 0%

Compound: COc1cc(N2CCC(N3CCN(C)CC3)CC2)ccc1Nc1ncc(Cl)c(Nc2ccccc2S(=O)(=O)C(C)C)n1
- kinase still bound, per cent of control [1]: 2%
- kinase still bound, per cent of control [2]: 40%
- kinase still bound, per cent of control [3]: 0.75%
- kinase still bound, per cent of control [4]: 0%
- kinase still bound, per cent of control [5]: 1.4%
- kinase still bound, per cent of control [6]: 0.5%
- kinase still bound, per cent of control [7]: 33%
- kinase still bound, per cent of control [8]: 40%
- kinase still bound, per cent of control [9]: 1.3%
- kinase still bound, per cent of control [10]: 24%
- kinase still bound, per cent of control [12]: 0.05%
- kinase still bound, per cent of control [13]: 0.05%
- kinase still bound, per cent of control [14]: 2.7%
- kinase still bound, per cent of control [16]: 0.1%
- kinase still bound, per cent of control [17]: 0.25%
- kinase still bound, per cent of control [18]: 2.2%
- kinase still bound, per cent of control [19]: 20%
- kinase still bound, per cent of control [20]: 3.3%
- kinase still bound, per cent of control [21]: 27%
- kinase still bound, per cent of control [22]: 0%
- kinase still bound, per cent of control [23]: 0.1%
- kinase still bound, per cent of control [24]: 11%
- kinase still bound, per cent of control [25]: 13%
- kinase still bound, per cent of control [26]: 0%
- kinase still bound, per cent of control [27]: 0.1%
- kinase still bound, per cent of control [28]: 40%
- kinase still bound, per cent of control [29]: 7.3%
- kinase still bound, per cent of control [30]: 7.5%
- kinase still bound, per cent of control [31]: 2.8%
- kinase still bound, per cent of control [32]: 3.4%
- kinase still bound, per cent of control [33]: 0.1%
- kinase still bound, per cent of control [34]: 0.1%
- kinase still bound, per cent of control [35]: 4.6%
- kinase still bound, per cent of control [36]: 0%
- kinase still bound, per cent of control [37]: 40%
- kinase still bound, per cent of control [38]: 40%
- kinase still bound, per cent of control [39]: 0.15%
- kinase still bound, per cent of control [40]: 32%
- kinase still bound, per cent of control [41]: 5.6%
